Some test systems named below: MDA-MB-231 breast; IGROV1 ovarian; RPMI-8226 leukemia; A498 renal; NCI-H522 lung; HCT-116 colon; SNB-19 CNS; 786-0 renal; MCF7 breast; SK-MEL-28 melanoma.
Holding throughout (experiment): DTP human tumour cell line panel, 48 h

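The compound was tested at five concentrations on cells cultured in 96-well plates, with a 48-hour exposure period. GI50 = concentration required for 50% inhibition of growth. TGI denotes the concentration required for complete inhibition of growth.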

Data on 8 molecules can be found in PubChem BioAssay (NCI).

Consider `COc1ccc(C(=O)c2cc(C)c(OC)c(C)c2)c(OC)c1OC(=O)C(Cl)Cl`, for which the GI50 – broadly, the concentration that inhibits growth by half – is 0.075 µM in the experiment with MDA-MB-231 breast; 0.464 µM with IGROV1 ovarian; 0.0416 µM in the experiment with RPMI-8226 leukemia; 1.74 µM with A498 renal; 0.0286 µM in the experiment with NCI-H522 lung; 0.0976 µM in the experiment on HCT-116 colon. The GI50 with SNB-19 CNS is 0.0432 µM; with 786-0 renal, 0.396 µM; in the experiment with MCF7 breast, 0.2 µM; with SK-MEL-28 melanoma, 0.0632 µM. For the same molecule, the TGI (in general, the concentration at which net growth stops) with MDA-MB-231 breast was over 100 µM; in the experiment with IGROV1 ovarian it was over 100 µM; with RPMI-8226 leukemia, 27.8 µM; with A498 renal it was 5.89 µM; with NCI-H522 lung, 1.2 µM; in the experiment with HCT-116 colon, over 100 µM. The TGI in the experiment on SNB-19 CNS, in the experiment with 786-0 renal, in the experiment on MCF7 breast and in the experiment on SK-MEL-28 melanoma was over 100 µM in each case.
For the molecule `COc1ccc(-n2nc(C(=O)NCC(=O)Nc3nc4cc(OC)ccc4s3)c3ccccc3c2=O)cc1`, the GI50 in the experiment on MDA-MB-231 breast is 1.49 µM; in the experiment on IGROV1 ovarian it was 1.18 µM; with A498 renal it was 1.37 µM; in the experiment with NCI-H522 lung, 1.69 µM; in the experiment with HCT-116 colon it was 1.64 µM; with SNB-19 CNS, 1.84 µM. Also, the GI50 was 1.96 µM in the experiment with 786-0 renal, 1.35 µM with MCF7 breast and 0.631 µM with SK-MEL-28 melanoma. In addition, the TGI is 4.46 µM with MDA-MB-231 breast; over 25.3 µM in the experiment on IGROV1 ovarian; over 100 µM in the experiment with RPMI-8226 leukemia; 10.3 µM in the experiment on A498 renal; 7.99 µM in the experiment with NCI-H522 lung; over 100 µM in the experiment with HCT-116 colon. In addition, the TGI was 6.07 µM in the experiment with SNB-19 CNS, 8.19 µM in the experiment on 786-0 renal, over 32 µM with MCF7 breast and 2.3 µM with SK-MEL-28 melanoma.
`CCCCc1n(Cc2ccc3ccccc3n2)cc[n+]1Cc1ccc2ccccc2c1`: the GI50 in the experiment with MDA-MB-231 breast was 0.635 µM; with IGROV1 ovarian, 0.731 µM; in the experiment with RPMI-8226 leukemia it was 0.265 µM; in the experiment on A498 renal, 1.18 µM; in the experiment on NCI-H522 lung, 0.58 µM; with HCT-116 colon it was 0.639 µM. In addition, the GI50 was 0.605 µM in the experiment with SNB-19 CNS, 1.6 µM in the experiment with 786-0 renal, 0.69 µM in the experiment with MCF7 breast and 0.798 µM in the experiment with SK-MEL-28 melanoma. Moreover, the total growth inhibition concentration (TGI) came out at 2.04 µM in the experiment with MDA-MB-231 breast; 2.38 µM in the experiment with IGROV1 ovarian; 1.36 µM with RPMI-8226 leukemia; 4.45 µM with A498 renal; 2.18 µM in the experiment with NCI-H522 lung; 2.11 µM with HCT-116 colon. The TGI in the experiment with SNB-19 CNS was 2.12 µM; in the experiment on 786-0 renal, 3.89 µM; in the experiment on MCF7 breast it was 2.27 µM; with SK-MEL-28 melanoma, 2.59 µM.
As to `CCCCCC/C=C\CCCCCCCCCc1cccc(OC)c1O`, the TGI in the experiment on MDA-MB-231 breast, in the experiment on IGROV1 ovarian, in the experiment on RPMI-8226 leukemia, in the experiment on A498 renal, in the experiment on NCI-H522 lung and with HCT-116 colon was over 100 µM throughout. Moreover, the TGI with SNB-19 CNS, in the experiment on 786-0 renal, in the experiment with MCF7 breast and in the experiment on SK-MEL-28 melanoma was over 100 µM each time.
As to `COC(=O)C[C@@H]1CC=CC(=O)/C1=C(O)/C=C/c1ccccc1`, the GI50 was 1.46 µM in the experiment with MDA-MB-231 breast; 0.216 µM in the experiment on IGROV1 ovarian; 0.303 µM in the experiment with RPMI-8226 leukemia; 1.87 µM in the experiment on A498 renal; 0.32 µM in the experiment with NCI-H522 lung; 0.169 µM in the experiment on HCT-116 colon. For the same molecule, the GI50 in the experiment on SNB-19 CNS is 1.57 µM; in the experiment on 786-0 renal, 0.519 µM; with MCF7 breast it was 0.374 µM; with SK-MEL-28 melanoma it was 1.19 µM. Besides, the TGI in the experiment with MDA-MB-231 breast was found to be 4.22 µM; in the experiment with IGROV1 ovarian, 0.52 µM; in the experiment with RPMI-8226 leukemia it was 1.34 µM; with A498 renal, 3.82 µM; with NCI-H522 lung it was 0.959 µM; in the experiment with HCT-116 colon it was 0.329 µM. In addition, the TGI in the experiment with SNB-19 CNS amounted to 4.84 µM; in the experiment with 786-0 renal, 1.56 µM; in the experiment with MCF7 breast it was 3.04 µM; with SK-MEL-28 melanoma, 2.61 µM.
With `COc1ccccc1CNC(=O)/C=C/c1ccc(O)c(O)c1`, the GI50 with MDA-MB-231 breast is 22.6 µM; in the experiment with IGROV1 ovarian, 22.9 µM; in the experiment with RPMI-8226 leukemia, 34.7 µM; in the experiment with A498 renal, over 100 µM; in the experiment with NCI-H522 lung, 22.7 µM; in the experiment on HCT-116 colon it was 52.6 µM. In addition, the GI50 in the experiment with SNB-19 CNS is 48.2 µM; with 786-0 renal, 76.1 µM; in the experiment with MCF7 breast, over 100 µM; with SK-MEL-28 melanoma, 89 µM. Also, the TGI in the experiment with MDA-MB-231 breast, in the experiment with IGROV1 ovarian, in the experiment with RPMI-8226 leukemia, in the experiment on A498 renal, in the experiment on NCI-H522 lung and in the experiment with HCT-116 colon was over 100 µM in each case. Moreover, the TGI in the experiment on SNB-19 CNS, in the experiment on 786-0 renal, with MCF7 breast and with SK-MEL-28 melanoma was over 100 µM throughout.
On to `C=CC(=O)N1CCC(CNc2ncnc(N)c2-c2ccc(Oc3ccccc3)cc2)CC1`, for which the GI50 in the experiment on MDA-MB-231 breast was 25.5 µM; in the experiment on IGROV1 ovarian, 8.51 µM; in the experiment on RPMI-8226 leukemia, 15.1 µM; in the experiment on A498 renal, 10.7 µM; in the experiment on NCI-H522 lung, 10.4 µM; in the experiment with HCT-116 colon, 30.1 µM. In addition, the GI50 was 32.8 µM in the experiment on SNB-19 CNS, 17.7 µM in the experiment on 786-0 renal, 23.4 µM with MCF7 breast and 34.4 µM in the experiment on SK-MEL-28 melanoma. Further, the TGI with MDA-MB-231 breast was 89 µM; in the experiment on IGROV1 ovarian it was 35.8 µM; with RPMI-8226 leukemia, 42.6 µM; in the experiment with A498 renal, 31.9 µM; in the experiment with NCI-H522 lung, 32.5 µM; in the experiment with HCT-116 colon, over 100 µM. Also, the TGI is over 100 µM with SNB-19 CNS, 92.9 µM in the experiment on 786-0 renal, over 100 µM in the experiment on MCF7 breast and over 100 µM in the experiment with SK-MEL-28 melanoma.
Consider `O=C(O)c1ccccc1C(=O)Nc1cc2c(cc1Br)-c1ccccc1C2=O`, for which the TGI in the experiment on MDA-MB-231 breast, with IGROV1 ovarian, in the experiment on RPMI-8226 leukemia, in the experiment with A498 renal, with NCI-H522 lung and in the experiment with HCT-116 colon was over 100 µM throughout. Besides, the TGI in the experiment with SNB-19 CNS, in the experiment on 786-0 renal, in the experiment with MCF7 breast and in the experiment on SK-MEL-28 melanoma was over 100 µM throughout.
